From patent EP3720857B1, “2-OXO-5H-CHROMENO[4,3-B]PYRIDINES FOR USE IN THE TREATMENT OF HEPATITIS B” (Galapagos NV, priority 2017, dated 2019)

System: hepatitis virus B (HBV) infection
Experiment: iCell hepatocytes assay, delayed assay (compounds added three days after HBV infection)
Format: cell-based
Conditions: not given
Experimental: The principle of the iCell hepatocyte 2.0 96 well assay is to evaluate the inhibitory effect of a test compound on hepatitis virus B (HBV) infection. In this assays the HBV core antigen (HBcAg) and/or extracellular antigen (HBeAg) and/or surface antigen (HBsAg) are used as a marker for HBV infection. Nuclei count may be used as an indication for compound toxicity.
In the standard assay set-up HBV infection and compound addition are performed on the same day, in the delayed assay the compounds are added three days after HBV infection. iCell hepatocytes 2.0 are human hepatocytes derived from induced pluripotent stem cells (iPSc) purchased from Cellular Dynamics international (CDI, R1027).
At day 0, iCell hepatocytes 2.0 (CDI, R1027) are thawed and seeded in collagen I coated 96well plates at 112 000c/well (100µL) in plating medium (RPMI supplemented with B27 supplement, 20 ng/mL recombinant human oncostatin M (OSM), 25µg/mL gentamicin, 0.1µM Dexamethasone and iCell medium supplement provided by CDI). Plates are incubated at 37°C, 5% CO2 and daily refreshed with plating medium for the following four days.
On day 5 and 6, plates are refreshed with 100µL maintenance medium (RPMI supplemented with B27 supplement, 25µg/mL gentamicin, 0.1µM Dexamethasone, and iCell medium supplement provided by CDI) and incubated at 37°C, 5% CO2 until the following day.
On day 7 (day of infection), the maintenance medium is removed from the assay plates and cells are infected with 50 µL of HBV mix (HBV virus, 4% PEG, 0% or 2% DMSO in maintenance medium). The assay plates were incubated overnight at 37°C, 5% CO2.
At day 1 post infection (day8), 50µL of HBV mix is removed from the assay plates and refreshed with 100 µL of maintenance medium. The assay plates are incubated at 37°C, 5% CO2 for three days.
At day 4 post infection (day 11) and day 7 post infection (day14), the supernatant is removed and 100 µL of compound series diluted 1/500 in maintenance medium is added to the assay plates (8 point serial dilution using 1/3 dilution steps in 100% DMSO or 8 point serial dilution using ¼ dilution steps, normalized for 0.2% DMSO. The assay plates were incubated at 37°C, 5% CO2 for three days.
At day 10 post infection (day 17), 100µL of supernatant is harvested and frozen to -20°C. The cells are fixed with 50 µL of 3.7% formaldehyde and incubated for 30 min at room temperature. After fixation, cells are washed four times with phosphate buffer saline (PBS) with the plate washer (Select 405, microplate washer, Biotek) and subjected to HBc staining. harvested supernatant is used for HBe and/or HBs ELISA.
The assay plates are blocked with blocking buffer (2% FBS, 3% BSA, 0.2% TritonX100 in PBS) for 1 h at room temperature.
After blocking, the assay plates are tapped manually and incubated with 50 µL diluted primary antibody (1/700 Rabbit-anti-HBc Ag, Dako, B0586 or 1/350 Rabbit-anti-HBc Ag, Invitrogen, PA516368) in blocking buffer and incubated for 90 min at room temperature.
After 4 washes of PBST (1XPBS + 0.05% Tween) with the plate washer, the assay plates are incubated with 100 µL of secondary antibody (Donkey-anti-rabbit Alexa 488, Lifetechnologies, A21206) 1/500 diluted in blocking buffer and incubated for 60 min at room temperature in the dark, then washed 4 times with PBST on the plate washer and incubated with 100µL of DAPI (Sigma D9542, stock 5mg/mL) 1/10000 diluted in PBS for 15-30 min at room temperature in the dark.
Finally, the assay plates are read out on a InCell Analyzer 2200 (GE Healthcare). […]
After blocking, 30 µL of sample and HBe Ag standard (recombinant hepatitis B virus E antigen protein, 4mg/mL, Abcam, ab91273) are added to the plate. The HBe Ag standard is 1/3 diluted in blocking buffer starting from 1.25µg/mL. A vehicle control is also included. The plate is incubated for 30 min at room temperature.
After sample incubation, the plates are washed 4 times with PBST on a platewasher followed by 2 washed of PBS. […]

`COCCCOc1cc2c(cc1Cl)-c1c(cc(C(=O)O)c(=O)n1C1CC1)C(C1(C)COC1)O2` (centres unmarked) [Compound 2, 9-chloro-1-cyclopropyl-8-(3-methoxypropoxy)-5-(3-methyloxetan-3-yl)-2-oxo-5H-chromeno[4,3-b]pyridine-3-carboxylic acid] was tested, and the “Delayed assay HBs ELISA % inhibition” value was “++ (50-75%)”.

Same assay, conditions: Hepatitis B virus, Hepatocyte, HBs ELISA

`COCCCOc1cc2c(cc1Cl)-c1c(cc(C(=O)O)c(=O)n1C1CC1)C(C1(C)COC1)O2` (centres unmarked) [Compound 2, 9-chloro-1-cyclopropyl-8-(3-methoxypropoxy)-5-(3-methyloxetan-3-yl)-2-oxo-5H-chromeno[4,3-b]pyridine-3-carboxylic acid] gave an EC50 of 0.001 to 20 nM.

System: hepatitis virus B (HBV) infection
Experiment: HepG2 NTCP assay (HBcAg staining as marker of HBV infection)
Format: cell-based
Conditions: HepG2-NTCP cells infected with HBV, HBV core antigen (HBcAg) as marker of infection
Text: The principle of the hepG2-NTCP assay is to measure the effect of a test compound on the inhibition of the hepatitis virus B (HBV) infection compared to a reference compound. To be able to infect the hepatocellular carcinoma cells (HepG2) with HBV, HepG2 cells were stably transfected with the Na+-taurocholate co-transporting polypeptide (NTCP) receptor, also referred to as Sodium/bile acid cotransporter (SLC10A1), which is necessary for HBV infection. In this assay the HBV core antigen (HBcAg) is used as a marker of HBV infection. Nuclei count is used as an indication for compound toxicity.
On day one, HepG2-NTCP cells ((Ni et al., 2014)) are seeded at 5000 cells in 50 µL per well in assay medium (DMEM high glucose supplemented with 10% non-heat inactivated (non HI) fetal bovine serum (FBS), 1% P/S, 1% L-glutamine and 1% MEM NEAA) in 384 well plate and incubated at 37°C, 5% CO2 overnight.
Compounds are prepared as 10 point serial dilutions using 1/3 dilution steps in 100% DMSO starting from 10 mM highest concentration, unless otherwise requested for very potent compounds, which started from 5mM or 1mM stock. Compounds are further diluted 1/500 in assay medium.
A negative control (vehicle: 24 wells with 0.2% DMSO) and positive control (24 wells with 100nM Myrcludex B (Cas no.: 406461-66-3), 0.2% DMSO and in 10 point DR) are included in the experiments.
On the second day, 40µl medium is removed from the cells with the plate washer (Select 405 microplate washer, Biotek). 15 µL of diluted compound series is transferred to the assay plate and cells are infected with 15 µL of HBV mix (HBV virus, 4%PEG, 1%DMSO in assay medium). The infection is performed in assay medium containing final concentration of 1% DMSO. The assay plate is incubated at 37°C, 5% CO2 overnight.
The next day, 30µl compound and HBV mix are removed from the assay plate with the plate washer and 30 µL of compound series diluted 1/500 in assay medium containing final concentration of 2.5% DMSO is added to the cell assay plate. The assay plate is incubated at 37°C, 5% CO2 for 5 days.
After 5 days of incubation, supernatant is removed from the cells with the plate washer. Cells are fixed with 50 µL of 3.7% formaldehyde added with the Well mate (Matrix technologies) and incubated for 30 min at room temperature. After fixation, cells are washed four times with phosphate buffer saline (1xPBS, 137mM NaCl, 10mM na2HPO4, 2.7mM KCl, 1.8mM KH2PO4 at pH7.4). The cells are finally subjected to HBc staining.
First, the assay plate is blocked with blocking buffer (2%FBS, 3% BSA, 0.2% TritonX100 in PBS) for 1 h at room temperature (optional to block overnight at 4°C).
After 4 washes of PBST (1XPBS + 0.05% Tween) with the plate washer, the assay plate is incubated with 30 µL diluted primary antibody (1/700 Rabbit anti-HBV core antigen, Dako, B0586 or 1/350 Rabbit anti HBV core antigen, Invitrogen, PA516368) in blocking buffer and incubated for 90 min at room temperature.
After 4 washes of PBST with the plate washer, the assay plate is incubated with 50 µL of secondary antibody (Donkey-anti-rabbit Alexa 488 antibody, Lifetechnologies A21206) 1/500 diluted in blocking buffer and incubated for 60 min at room temperature and in the dark.
The assay plate is washed 4 times with PBST on the plate washer and incubated with 50µL of DAPI (Sigma D9542, stock 5mg/mL) 1/10000 diluted in PBS for 15-30 min at room temperature and in the dark. The assay plate is now ready for read out on the InCell Analyzer 2200 (GE Healthcare).
Raw data are generated following read-out performed on InCell 2200 and are imported into the galapagos LIMS for automated calculation of percentage inhibition (PIN) and toxicity by nuclei count, using the control wells mentioned above, and creation of Dose Response curves. Table V. Hepg2 NTCP assay activity of illustrative compounds of the invention

First: COCCCOc1cc2c(cc1Cl)-c1c(cc(C(=O)O)c(=O)n1C1CC1)C(C1(C)COC1)O2 (centres unmarked) [Compound 2, 9-chloro-1-cyclopropyl-8-(3-methoxypropoxy)-5-(3-methyloxetan-3-yl)-2-oxo-5H-chromeno[4,3-b]pyridine-3-carboxylic acid]
Second: COc1cc2c(cc1Cl)-c1c(cc(C(=O)O)c(=O)n1C1CC1)[C@@H](C1(C)COC1)O2 [Compound 66, (5S)-9-chloro-1-cyclopropyl-8-methoxy-5-(3-methyloxetan-3-yl)-2-oxo-5H-chromeno[4,3-b]pyridine-3-carboxylic acid]
The IC50 of the first is lower: 0.001 to 1 nM for the first, 1 to 20 nM for the second. The first is the more potent here.

First: O=C(O)c1cc2c(n(C3CC3)c1=O)-c1cc(Cl)c(F)cc1OC2 [Compound 60, 9-chloro-1-cyclopropyl-8-fluoro-2-oxo-5H-chromeno[4,3-b]pyridine-3-carboxylic acid]
Second: O=C(O)c1cc2c(n(C3CC3)c1=O)-c1cc(Cl)c(Cl)cc1OC2 [Compound 61, 8,9-dichloro-1-cyclopropyl-2-oxo-5H-chromeno[4,3-b]pyridine-3-carboxylic acid]
The IC50 of the first is higher: over 100 nM for the first, 1 to 20 nM for the second. The second is the more potent here.

`COCCCOc1cc2c(cc1C(F)(F)F)-c1c(cc(C(=O)O)c(=O)n1C1CC1)C(C(C)C)O2` (centres unmarked) [Compound 62, 1-cyclopropyl-5-isopropyl-8-(3-methoxypropoxy) -2-oxo-9-(trifluoromethyl)-5H-chromeno[4,3-b]pyridine-3-carboxylic acid] and `COCCCOc1cc2c(cc1Br)-c1c(cc(C(=O)O)c(=O)n1C1CC1)C(C(C)C)O2` (centres unmarked) [Compound 71, 9-bromo-1-cyclopropyl-5-isopropyl-8-(3-methoxypropoxy) -2-oxo-5H-chromeno[4,3-b]pyridine-3-carboxylic acid] fall in the same range of IC50: 0.001 to 1 nM for the first, 0.001 to 1 nM for the second.

Compared with `COCCCOc1cc2c(cc1S(C)(=O)=O)-c1c(cc(C(=O)O)c(=O)n1C1CC1)C(C(C)C)O2` (centres unmarked) [Compound 63, 1-cyclopropyl-5-isopropyl-8-(3-methoxypropoxy) -9-methylsulfonyl-2-oxo-5H-chromeno[4,3-b]pyridine-3-carboxylic acid], `CC(C)C1Oc2cc(OCC3(C)COC3)c(F)cc2-c2c1cc(C(=O)O)c(=O)n2C1CC1` (centres unmarked) [Compound 65, 1-cyclopropyl-9-fluoro-5-isopropyl-8-[(3-methyloxetan-3-yl)methoxy]-2-oxo-5H-chromeno[4,3-b]pyridine-3-carboxylic acid] is lower in IC50: 1 to 20 nM for the first, 0.001 to 1 nM for the second.

`CC(C)C1Oc2cc(OCC3COC3)c(F)cc2-c2c1cc(C(=O)O)c(=O)n2C1CC1` (centres unmarked) [Compound 64, 1-cyclopropyl-9-fluoro-5-isopropyl-8-(oxetan-3-ylmethoxy)-2-oxo-5H-chromeno[4,3-b]pyridine-3-carboxylic acid] and `CC1(C2Oc3cc(OC(F)F)c(Cl)cc3-c3c2cc(C(=O)O)c(=O)n3C2CC2)COC1` (centres unmarked) [Compound 70, 9-chloro-1-cyclopropyl-8-(difluoromethoxy)-5-(3-methyloxetan-3-yl)-2-oxo-5H-chromeno[4,3-b]pyridine-3-carboxylic acid] fall in the same range of IC50: 1 to 20 nM for the first, 1 to 20 nM for the second.

`COc1cc2c(cc1Cl)-c1c(cc(C(=O)O)c(=O)n1C1CC1)[C@H](C1(C)COC1)O2` [Compound 67, (5R)-9-chloro-1-cyclopropyl-8-methoxy-5-(3-methyloxetan-3-yl)-2-oxo-5H-chromeno[4,3-b]pyridine-3-carboxylic acid] and `CC1(C2Oc3cc(OCC(F)(F)F)c(Cl)cc3-c3c2cc(C(=O)O)c(=O)n3C2CC2)COC1` (centres unmarked) [Compound 68, 9-chloro-1-cyclopropyl-5-(3-methyloxetan-3-yl)-2-oxo-8-(2,2,2-trifluoroethoxy)-5H-chromeno[4,3-b]pyridine-3-carboxylic acid] fall in the same range of IC50: 0.001 to 1 nM for the first, 0.001 to 1 nM for the second.

First: CC1(C2Oc3cc(OC[C@H]4COCCO4)c(Cl)cc3-c3c2cc(C(=O)O)c(=O)n3C2CC2)COC1 (stereo partly drawn) [Compound 69, 9-chloro-1-cyclopropyl-8-[[(2R)-1,4-dioxan-2-yl]methoxy]-5-(3-methyloxetan-3-yl)-2-oxo-5H-chromeno[4,3-b]pyridine-3-carboxylic acid]
Second: CC1(C2Oc3cc(OCC4CN(S(C)(=O)=O)C4)c(Cl)cc3-c3c2cc(C(=O)O)c(=O)n3C2CC2)COC1 (centres unmarked) [Compound 72, 9-chloro-1-cyclopropyl-5-(3-methyloxetan-3-yl)-8-[(1-methylsulfonylazetidin-3-yl)methoxy]-2-oxo-5H-chromeno[4,3-b]pyridine-3-carboxylic acid]
The IC50 of the first is lower: 0.001 to 1 nM for the first, 1 to 20 nM for the second. The first is the more potent here.

`COc1cc2c(cc1OC)-c1c(cc(C(=O)O)c(=O)n1C1CC1)C(CSC)O2` (centres unmarked) [Compound 74, 1-cyclopropyl-8,9-dimethoxy-5-(methylsulfanylmethyl)-2-oxo-5H-chromeno[4,3-b]pyridine-3-carboxylic acid] gave an IC50 of over 100 nM.
